Test system: Pseudomonas aeruginosa infection
Assay: Self-administered inhalation by a cystic fibrosis patient with Pseudomonas aeruginosa infection: patient-reported signs of infection
Format: in vivo, human
Details: for initial response of asthma and coughing to the antibiotic regimen: ciprofloxacin 2×1000 mg, Zithromax 1×500 mg daily and TOBI 2×5mg given together; for severity of asthma, frequency of coughing and quantity of expectorated mucus after three months on the antibiotics: ciprofloxacin, Zithromax and TOBI given together
Source text: I. A cystic fibrosis patient described their asthma as increasingly severe and being present constantly during the day. They reported being more short-breathed than previously, often experiencing difficulty breathing after walking only 50 meters. They also reported an increasingly persistent cough, which escalated to almost every minute. They also described coughing up a “fluorescent light green” mucus. The patient further reported losing about 3.5 kg of weight.
After a lab test by their cystic fibrosis doctor, the patient was diagnosed with a Pseudomonas aeruginosa infection. They were prescribed the antibiotics ciprofloxacin (2×1000 mg), Zithromax® (azithromycin, 1×500 mg daily) and TOBI, an aerosolized form of tobramycin (2×5mg). […]
The patient reports that during the past 3 months they have resumed using the lactoferrin/OPC combination, as well as TOBI twice a day and Zithromax, and pulmozyme.

Row | Structure (SMILES) | initial response of asthma and coughing to the antibiotic regimen | severity of asthma, frequency of coughing and quantity of expectorated mucus after three months on the antibiotics
1 | CC[C@H]1OC(=O)[C@H](C)[C@@H](O[C@H]2C[C@@](C)(OC)[C@@H](O)[C@H](C)O2)[C@H](C)[C@@H](O[C@@H]2O[C@H](C)C[C@H](N(C)C)[C@H]2O)[C@](C)(O)C[C@@H](C)CN(C)[C@H](C)[C@@H](O)[C@]1(C)O [Zithromax, azithromycin] | initial noticeable decrease in both the asthma and coughing | began increasing
2 | O=C(O)c1cn(C2CC2)c2cc(N3CCNCC3)c(F)cc2c1=O [ciprofloxacin] | initial noticeable decrease in both the asthma and coughing | began increasing
